10 compounds from patent US11478451B1, “Macrocyclic chlorine substituted indole derivatives” (Bayer Aktiengesellschaft, priority 2017, dated 2022) can be followed below.

Each structure is given as a SMILES string. Where a name gives a salt, the structure may show the parent alone. Read-outs that look alike come from different tables or passages of the source.

Data set [1] deals with SUDHL10 cells. Nature of the data set: Induction of cytotoxicity (CellTiter-Glo, 5 h), SUDHL10. Conditions: SUDHL10, 5 h. A general note: In ATP-based viability assays light output follows the ATP content of the culture.
The test system of data set [2] is SUDHL10 cells. Nature of the data set: Induction of caspase-3/7 activity (Caspase-Glo 3/7), SUDHL10. Type of data set: cell-based. The settings on record: EC50, median, SUDHL10, 3 h treatment. The method in brief:
(§1)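 Caspase-3/7 activation measured by Caspase-Glo 3/7 after a 3 h compound exposure of diffuse large B-cell lymphoma cells at 37 °C. Values corrected by subtracting the medium-only background.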

For a further data set, the system named is HMC-1-8 cells. Nature of the data set: Antiproliferation assay (CellTiter-Glo, 72 h), HMC-1-8. The settings on record: IC50, median, HMC-1-8, 72 h, read-out: Antiproli HMC-1-8 [M] median. It is filed as cell-based. The method in brief:
(§2)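 A reference plate measured at day 0 set the time-zero baseline. Treated plates were read by CellTiter-Glo luminescence after 72 h of compound exposure at 37°C in a humidified incubator.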

Another data set has as its system AMO-1 cells. Nature of the data set: Antiproliferation assay (CellTiter-Glo, 72 h), AMO-1. It is filed as cell-based. The settings on record: IC50, median, AMO-1, 72 h, read-out: Antiproli AMO-1 [M] median. Put shortly: as §2
The test system of data set [3] is SUDHL5 cells. Nature of the data set: Induction of cytotoxicity (CellTiter-Glo, 5 h), SUDHL5. Conditions: SUDHL5, 5 h.
The test system of data set [4] is SUDHL5 cells. Nature of the data set: Induction of caspase-3/7 activity (Caspase-Glo 3/7), SUDHL5. It is filed as cell-based. Conditions: EC50, median, SUDHL5, 3 h treatment. Put shortly: as §1
The subject of data set [5] is SUDHL5 cells. Nature of the data set: Antiproliferation assay (CellTiter-Glo, 72 h), SUDHL5. Conditions: IC50, median, SUDHL5, 72 h, read-out: Antiproli SUDHL5 [M] (median). Type of data set: cell-based. The method in brief: as §2
Where [6] appears, read: Homo sapiens, SU-DHL10, 5 h, read-out: Cytotox SUDHL10 [M] (median), IC50, median.
The mark [7] stands for this setting: Homo sapiens, SU-DHL-5, 5 h, read-out: Cytotox SUDHL5 [M] (median), IC50, median.
Setting [8] is: read-out: Cytotox SUDHL5 [M] (median), IC50, median.
The mark [9] stands for this setting: read-out: Cytotox SUDHL10 [M] (median), IC50, median.

As for `CCc1c2c(nn1C)CN(CC(F)F)CCCCn1c(C(=O)O)c(CCCOc3cccc4cc(F)ccc34)c3ccc(Cl)c-2c31` (single isomer, unassigned; enantiomer 2) [Example 76, (−)-4-chloro-14-(2,2-difluoroethyl)-3-ethyl-7-{3-[(6-fluoronaphthalen-1-yl)oxy]propyl}-2-methyl-10,11,12,13,14,15-hexahydro-2H-pyrazolo[3′,4′:8,9][1,6]diazacycloundecino[10,11,1-hi]indole-8-carboxylic acid N-ethylethanamine salt (Enantiomer 2)], the IC50 in the data set with SUDHL10 cells [1] (read-out: Cytotox SUDHL10 [M] (median), IC50, median, listed as 076) was 4e-07 M; with HMC-1-8 cells (listed as 076) it was 4.4e-06 M; in the data set on AMO-1 cells (listed as 076) it was 2.4e-07 M; in the data set with SUDHL5 cells [3] (read-out: Cytotox SUDHL5 [M] (median), IC50, median, listed as 076), 3e-07 M; in the data set on SUDHL5 cells [5] (listed as 076), 3.2e-07 M. In addition, the EC50 amounted to 260 nM with SUDHL10 cells [2] (listed as 076) and 240 nM with SUDHL5 cells [4] (listed as 076).

Consider `Cc1c2c(nn1C)CN(CC(F)(F)F)CCCCn1c(C(=O)O)c(CCCOc3cccc4cc(F)ccc34)c3ccc(Cl)c-2c31` (racemic) [Example 58, (rac)-4-chloro-7-{3-[(6-fluoronaphthalen-1-yl)oxy]propyl}-2,3-dimethyl-14-(2,2,2-trifluoroethyl)-10,11,12,13,14,15-hexahydro-2H-pyrazolo[3′,4′:8,9][1,6]diazacycloundecino[10,11,1-hi]indole-8-carboxylic acid], for which the IC50 in the data set on SUDHL10 cells [1] (setting [6]) came out at 2e-06 M; with HMC-1-8 cells (72 h), 5.8e-06 M; with AMO-1 cells (Homo sapiens, AMO1, 72 h) it was 1.7e-06 M; with SUDHL5 cells [3] (setting [7]), 8.4e-07 M; with SUDHL5 cells [5] (Homo sapiens, SU-DHL-5, 72 h), 6.2e-07 M. Also, the EC50 with SUDHL10 cells [2] (Homo sapiens, SU-DHL10, 3 h) amounted to 1500 nM; with SUDHL5 cells [4] (Homo sapiens, SU-DHL-5, 3 h), 510 nM.

`CCc1c2c(nn1C)COCC1CC1Cn1c(C(=O)O)c(CCCOc3cccc4cc(F)ccc34)c3ccc(Cl)c-2c31` (single isomer, unassigned; (+)) [Example 107]: the IC50 with SUDHL10 cells [1] (setting [6]) is 5.9e-07 M; in the data set on HMC-1-8 cells (72 h), 2.4e-06 M; with AMO-1 cells, 5.5e-07 M; in the data set with SUDHL5 cells [3] (setting [8]), 4.6e-07 M; with SUDHL5 cells [5] it was 7.2e-07 M. Besides, the EC50 was found to be 470 nM in the data set with SUDHL10 cells [2] and 390 nM in the data set on SUDHL5 cells [4].

In the case of `CCc1c2c(nn1C)CN(C)CC(F)(F)CCn1c(C(=O)O)c(CCCOc3cccc4cc(F)ccc34)c3ccc(Cl)c-2c31` (single isomer, unassigned) [Example 127, 4-chloro-3-ethyl-12,12-difluoro-7-{3-[(6-fluoronaphthalen-1-yl)oxy]propyl}-2,14-dimethyl-10,11,12,13,14,15-hexahydro-2H-pyrazolo[3′,4′:8,9][1,6]diazacycloundecino[10,11,1-hi]indole-8-carboxylic acid], the IC50 was found to be 3.8e-07 M in the data set with SUDHL10 cells [1] (setting [9]); 2.2e-06 M with HMC-1-8 cells (72 h); 5.8e-07 M in the data set on AMO-1 cells; 2.4e-07 M in the data set on SUDHL5 cells [3] (setting [8]); 4.3e-07 M in the data set with SUDHL5 cells [5]. Also, the EC50 turned out to be 480 nM in the data set with SUDHL10 cells [2] and 280 nM in the data set with SUDHL5 cells [4].

In the case of `CCc1c2c(nn1C)CCCN(CC(F)F)CCn1c(C(=O)O)c(CCCOc3cccc4cc(F)ccc34)c3ccc(Cl)c-2c31` (racemic) [Example 118, (rac)-4-chloro-12-(2,2-difluoroethyl)-3-ethyl-7-{3-[(6-fluoro-1-naphthyl)oxy]propyl}-2-methyl-10,11,12,13,14,15-hexahydro-2H-pyrazolo[3′,4′:8,9][1,4]diazacycloundecino[10,11,1-hi]indole-8-carboxylic acid], the IC50 was 6.4e-07 M with SUDHL10 cells [1] (setting [9]); 2.5e-06 M with HMC-1-8 cells; 5.1e-07 M with AMO-1 cells (Homo sapiens, AMO1, 72 h); 5.5e-07 M in the data set with SUDHL5 cells [3] (setting [8]); 5.5e-07 M with SUDHL5 cells [5]. For the same compound, the EC50 with SUDHL10 cells [2] turned out to be 510 nM; with SUDHL5 cells [4], 330 nM.

Turning to `CCc1c2c(nn1C)CN(C(=O)OCCOC)CCCCn1c(C(=O)O)c(CCCOc3cccc4cc(F)ccc34)c3ccc(Cl)c-2c31` [Example 134, (rac)-4-chloro-3-ethyl-7-{3-[(6-fluoronaphthalen-1-yl)oxy]propyl}-14-[(2-methoxyethoxy)carbonyl]-2-methyl-10,11,12,13,14,15-hexahydro-2H-pyrazolo[3′,4′:8,9][1,6]diazacycloundecino[10,11,1-hi]indole-8-carboxylic acid], the IC50 turned out to be 3.4e-07 M in the data set with SUDHL10 cells [1] (setting [6]); 2.1e-06 M in the data set on HMC-1-8 cells (72 h); 3.4e-07 M in the data set with AMO-1 cells (Homo sapiens, AMO1, 72 h); 1.8e-07 M with SUDHL5 cells [3] (setting [7]); 2.3e-07 M in the data set with SUDHL5 cells [5] (Homo sapiens, SU-DHL-5, 72 h). Further, the EC50 turned out to be 240 nM in the data set with SUDHL10 cells [2] (Homo sapiens, SU-DHL10, 3 h) and 130 nM in the data set with SUDHL5 cells [4] (Homo sapiens, SU-DHL-5, 3 h).

For `CCc1c2c(nn1C)COCC1(CCn3c(C(=O)O)c(CCCOc4cccc5ccccc45)c4ccc(Cl)c-2c43)CC1` (single isomer, unassigned; enantiomer 2) [Example 74, (+)-4′-chloro-3′-ethyl-2′-methyl-7′-{3-[(naphthalen-1-yl)oxy]propyl}-2′,10′,11′,15′-tetrahydro-13′H-spiro[cyclopropane-1,12′-pyrazolo[4′,3′:9,10][1,6]oxazacycloundecino[8,7,6-hi]indole]-8′-carboxylic acid-N-ethylethanamine salt (Enantiomer 2)], the IC50 amounted to 4e-07 M with SUDHL10 cells [1] (setting [6]); 9.4e-06 M in the data set with HMC-1-8 cells (72 h); 1.3e-06 M in the data set on AMO-1 cells (Homo sapiens, AMO1, 72 h); 4.1e-07 M with SUDHL5 cells [3] (setting [7]); 7.6e-07 M with SUDHL5 cells [5] (Homo sapiens, SU-DHL-5, 72 h). Moreover, the EC50 in the data set with SUDHL10 cells [2] (Homo sapiens, SU-DHL10, 3 h) came out at 570 nM; with SUDHL5 cells [4] (Homo sapiens, SU-DHL-5, 3 h) it was 140 nM.

Consider `CCc1c2c(nn1C)CCCN(C)CCn1c(C(=O)O)c(CCCOc3cccc4cc(F)ccc34)c3ccc(Cl)c-2c31` (single isomer, unassigned) [Example 116, (+)-4-chloro-3-ethyl-7-{3-[(6-fluoronaphthalen-1-yl)oxy]propyl}-2,12-dimethyl-10,11,12,13,14,15-hexahydro-2H-pyrazolo[3′,4′:8,9][1,4]diazacycloundecino[10,11,1-hi]indole-8-carboxylic acid], for which the IC50 in the data set with SUDHL10 cells [1] (setting [9]) came to 3.4e-07 M; with HMC-1-8 cells (72 h), 2.3e-06 M; with AMO-1 cells, 2.1e-07 M; in the data set with SUDHL5 cells [3] (setting [8]) it was 4.1e-07 M; in the data set with SUDHL5 cells [5], 3.4e-07 M. Besides, the EC50 with SUDHL10 cells [2] and with SUDHL5 cells [4] was 290 nM throughout.

As for `CCc1c2c(nn1C)COCC(F)(F)CCn1c(C(=O)O)c(CCCOc3cccc4cc(F)ccc34)c3ccc(Cl)c-2c31` (single isomer, unassigned) [Example 85, (−)-4-chloro-3-ethyl-12,12-difluoro-7-{3-[(6-fluoronaphthalen-1-yl)oxy]propyl}-2-methyl-2,10,11,12,13,15-hexahydropyrazolo[4′,3′:9,10][1,6]oxazacycloundecino[8,7,6-hi]indole-8-carboxylic acid], the IC50 worked out at 9.8e-07 M with SUDHL10 cells [1] (setting [6]); 3.3e-06 M with HMC-1-8 cells (72 h); 4.9e-07 M in the data set on AMO-1 cells (listed as 085); 3e-07 M with SUDHL5 cells [3] (read-out: Cytotox SUDHL5 [M] (median), IC50, median, listed as 085); 3.6e-07 M in the data set on SUDHL5 cells [5] (listed as 085). The EC50 in the data set with SUDHL10 cells [2] (Homo sapiens, SU-DHL10, 3 h) came out at 320 nM; in the data set on SUDHL5 cells [4] (listed as 085), 180 nM.

Regarding `CCc1c2c(nn1C)COCC(O)CCn1c(C(=O)O)c(CCCOc3cccc4cc(F)ccc34)c3ccc(Cl)c-2c31` (stereo not shown) [Example 99, 4-chloro-3-ethyl-7-{3-[(6-fluoronaphthalen-1-yl)oxy]propyl}-12-hydroxy-2-methyl-2,10,11,12,13,15-hexahydropyrazolo[4′,3′:9,10][1,6]oxazacycloundecino[8,7,6-hi]indole-8-carboxylic acid-N-ethylethanamine salt], the IC50 was 2.3e-07 M with SUDHL10 cells [1] (setting [9]); 5.9e-06 M in the data set with HMC-1-8 cells (72 h); 5.2e-07 M in the data set with AMO-1 cells (Homo sapiens, AMO1, 72 h); 2.7e-07 M in the data set on SUDHL5 cells [3] (setting [8]); 2.6e-07 M in the data set on SUDHL5 cells [5] (Homo sapiens, SU-DHL-5, 72 h). The EC50 in the data set on SUDHL10 cells [2] was 180 nM; in the data set on SUDHL5 cells [4] it was 190 nM.

By EC50 is commonly meant the concentration that produces a half-maximal response. The low end stands for a more potent agent, the high end for a less potent agent.
